{"source": "patent US5811463A", "about": "“Compositions and method for relaxing smooth muscles” (University of British Columbia, priority 1996, dated 1998)", "key": {"[1]": {"system": "mean arterial pressure in conscious rats", "test": "Depression of mean arterial pressure in conscious rats in vivo", "parameters": "species or system rat (Sprague-Dawley)", "details": "intravenous bolus", "experimental": "Likewise, in vivo tests may also be readily developed and utilized in order to determine the efficacy (and therapeutically effective amount) of the transition-metal nitrosyl complexes described above. For example, within one aspect of the present invention, a series of transition-metal nitrosyl complexes were tested in vivo for their ability to reduce the mean arterial blood pressure of conscious rats in vivo. Briefly, as described in greater detail below in Example 6, conscious, unrestrained rats were intravenous bolus injected with the transition-metal nitrosyl complexes. Five of the complexes were determined to dose-dependently reduce mean arterial pressure with maximum depressor effects which ranged from -36 to -59 mm Hg. Maximum depressor effects of sodium nitroprusside and nitroglycerin under similar conditions were -58 and -56 mm Hg, respectively. […] The results of the effects of the transition-metal nitrosyl complexes on the depression of mean arterial pressure in conscious rats in vivo are summarized in Example 5 and Table 1.\n(§1) Examples 5-7 present in vitro and in vivo results of the evaluation of the efficiency of the transition-metal nitrosyl complexes in relaxing blood vessels and lowering blood pressure. Sprague-Dawley rats (300-400g) were used for all experiments. Each group consisted of 1-6 rats for the in vivo experiments and 3-6 aortic rings for the in vitro experiments. Each aortic ring was from a different rat.\nExample 6 describes the results of the determination of the efficacy of the transition-metal nitrosyl complexes in reducing blood pressure of conscious, unrestrained rats. In these in vivo experiments, the depression of rat arterial pressure was measured as a function of transition-metal nitrosyl complex dose. Dose-response (pressure depression) curves were constructed and the capacities of the transition-metal nitrosyl complexes to reduce arterial pressure were compared and related to nitroglycerin and sodium nitroprusside. The results of these experiments are reported in terms of ED50 (effective dose to produce a 50% pressure depression response) and Emax (maximum decrease in blood pressure) and are summarized in Example 5, Table 1.\n(§2) The rats were anaesthetized with halothane (4% in air for induction and 1.5% in air for surgery). A polyethylene cannula (PE50) was inserted into the left iliac artery for the measurement of mean arterial pressure (MAP) by a pressure transducer (P23DB, Gould Statham, Calif.). A PE50 cannula was also inserted into the iliac vein for the administration of the vehicle or a drug. The rats were then put into a small cage and given>6 hr to recover from the effects of anaesthesia and surgery before use. The rats were allowed to move freely during the recovery phase as well as during the conduction of the experiments as described in Wang and Pang, Br. J. Pharmacol. 103:2004-8, 1991. Only one dose-response curve of a metal nitrosyl complex, sodium nitroprusside, nitroglycerin or vehicle (0.9% NaCl solution or dimethylsulfoxide solution) was constructed in each rat. All drugs or vehicle were intravenous bolus injected at dose-intervals of 3-7 min, to allow the recovery of depressor responses, before the injection of the next higher dose."}, "conscious rats": {"system": "conscious rats", "test": "Toxic dose (convulsion / death) in conscious rats in vivo", "parameters": "species or system rat (Sprague-Dawley); unit not given here", "details": "intravenous bolus; for Toxic dose: dose which caused convulsion: footnote a; for Toxic dose: dose which caused neither convulsion nor death: footnote c", "description": "as §1\n^a denotes dose which caused convulsion\n^b denotes dose which caused death\n^c denotes dose which caused neither convulsion nor death.\nas §2"}, "[2]": {"system": "phenylephrine pre-constricted rat aortic rings", "test": "Relaxation of phenylephrine pre-constricted rat aortic rings in vitro", "parameters": "species or system rat (Sprague-Dawley)", "details": "phenylephrine 10^-6 M pre-constricted rat aortic rings; for pEC50: read-out: In vitro EC50 (effective concentration to produce a 50% relaxation response)", "description": "As noted above, the present invention also provides methods for relaxing smooth muscle in a warm-blooded animal (e.g., humans, chimps, cows, goats, pigs, dogs, cats, rats or mice) comprising the step of administering to the animal a therapeutically effective amount of a transition-metal nitrosyl complex as described above. Briefly, the efficacy (and therapeutically effective amount) of a particular transition-metal nitrosyl complex may be readily determined by both in vitro and in vivo techniques. See generally Blattner et al., Experiments on Isolated Smooth Muscle Preparations, Hugo Sachs Elektronik KG, 1980 (incorporated herein by reference in its entirety). For example, within one embodiment, a small animal such as a rat, rabbit, or guinea-pig is sacrificed and exsanguinated. The required tissue (e.g., artery, vein, stomach, ileum, jejunum, caecum, colon, uterus, spleen, trachea, seminal vesicle, ductus deferens, or corpus cavernosum) is removed and placed in an oxygenated physiological solution (e.g., Krebs or Tyrode solution). This tissue is then cut such that one end is attached to the bottom of a muscle bath, and the other end to a force-displacement transducer (for example, Grass FT-03-C, Quincy, Mass.) for isometric recording with a physiological recorder (Grass, Model 79G). An appropriate pre-load (0.5 to 10 grams, depending on the tissue) is then applied, and the tissue equilibrated in the bath for one hour prior to the start of the study.\nThe measurement of smooth muscle contractile response may then be performed essentially as described by Pang and Sutter in Blood Vessels 17:293-301, 1980 (incorporated herein by reference in its entirety). Briefly, a dose-response curve of an agonist (e.g., phenylephrine, norepinephrine) is first obtained by measuring contractile response of the muscle as a function of agonist concentration. Response to the agonist is then measured beginning with the addition of the lowest dose of agonist to the bath. Each dose is equilibrated in the bath for 2 to 6 minutes in order to assure a steady state response, prior to proceeding to the next higher dose.\nMeasurement of the effectiveness of smooth muscle relaxant compositions may then be determined by measurement of the smooth muscle relaxation response, in a manner analogous to contractile response. See generally Wang, Poon and Pang, J. Pharm. Exp. Ther. 265:112-119, 1993 (incorporated herein by reference in its entirety). Briefly, tissue is first contracted with an agonist such as phenylephrine, usually at a concentration which results in 90% of the tissue's maximum contractile response (referred to EC90). At the steady state phase of the contractile response to the agonist, a cumulative dose-response curve for the smooth muscle relaxant may be determined. For each concentration of relaxant, a steady state is achieved and the relaxation response measured. […] For example, the EC50 of a relaxant is the effective concentration of the relaxant required to relax a pre-contracted muscle to 50% of its maximum contractile response.\nas §1\nExample 5 presents the results of the evaluation of the efficacy of the transition metal nitrosyl complexes in blood vessel relaxation. In these in vitro experiments, phenylephrine pre-constricted rat aortae were subjected to increasing doses of the transition-metal nitrosyl complexes, and the relaxation of the rat aortae measured. […]"}, "[3]": {"system": "phenylephrine-preconstricted rat aortic rings", "test": "Tolerance: relaxation of rat aortic rings after pre-incubation with CpCr(NO)2 Cl or nitroglycerin", "parameters": "species or system rat (Sprague-Dawley)", "details": "1 h", "description": "In addition to determining efficacy of transition-metal nitrosyl complexes in either in vitro or in vivo tests, it is also generally preferably to determine whether the composition induces tolerance. For example, within one embodiment of the invention, induction of tolerance by the transition-metal nitrosyl complex described above may be readily determined by exposing rat aortic rings to a transition-metal nitrosyl complex prior to relaxation determinations. More specifically, as described in greater detail 10 below in Example 7, intact rat aortic rings were pre-incubated with a typical transition- metal nitrosyl complex for one hour prior to examination of its concentration-relaxation effect in phenylephrine-preconstricted conditions. Unlike the relaxation response of nitroglycerin, the relaxation response of the transition-metal nitrosyl complexes was not diminished by pre-exposure of the aortic ring to the complex.\nas §1\nExample 7 presents the results of pre-exposing the rat aortae to the transition-metal nitrosyl complexes to evaluate the development of tolerance. In these experiments, the rat aortic rings were pretreated with a transition-metal nitrosyl complex prior to the measurement of dose-dependent relaxation as described above in Example 5.\nIn this study, the vehicles, CpCr(NO)2 Cl (10^-6 M), or nitroglycerin (3×10^-4 M) was added to the baths for 1 h, followed by the washout of drug or vehicle, preconstriction with phenylephrine and the construction of a concentration-relaxation curve of CpCr(NO)2 Cl."}, "blood vessels": {"system": "blood vessels", "details": "cited from earlier work"}, "[4]": {"details": "pre-incubation nitroglycerin 3×10^-4 M"}}, "note": "pEC50: −log10 of the molar value.", "data": [{"smiles": "O=N[O][Cr+]([N]=O)[N]=O.c1cc[cH-]c1", "note": "[CpCr(NO)2 (ONO), Nitrito(.eta.^5 -cyclopentadienyl)dinitrosylchromium]", "values": [{"measurement": "In vivo ED50 (effective dose to produce a 50% pressure depression response)", "setting": "[1]", "result": 0.0015, "unit": "mg/kg"}, {"measurement": "In vivo Emax (maximum decrease in blood pressure)", "setting": "[1]", "result": -45, "unit": "mmHg"}, {"measurement": "Toxic dose: dose which caused convulsion", "setting": "conscious rats", "result": 1280}, {"measurement": "In vitro Emax (percent relaxation of phenylephrine-induced contraction)", "setting": "[2]", "result": -98, "unit": "%"}, {"measurement": "pEC50", "setting": "[2]", "result": 7.00}]}, {"smiles": "O=[N][Cr+]([Cl])[N]=O.c1cc[cH-]c1", "note": "[CpCr(NO)2 Cl]", "values": [{"measurement": "In vivo ED50 (effective dose to produce a 50% pressure depression response)", "setting": "[1]", "result": 0.0044, "unit": "mg/kg"}, {"measurement": "In vivo Emax (maximum decrease in blood pressure)", "setting": "[1]", "result": -42, "unit": "mmHg"}, {"measurement": "Toxic dose: dose which caused convulsion", "setting": "conscious rats", "result": "2,000"}, {"measurement": "effect of pre-incubation with CpCr(NO)2 Cl on EC50 and Emax", "setting": "[3]; pre-incubation CpCr(NO)2 Cl 10^-6 M", "result": "did not alter the EC50 or Emax"}, {"measurement": "effect of pre-incubation with nitroglycerin on EC50 and Emax", "setting": "[3]; pre-incubation nitroglycerin 3×10^-4 M, cross-tolerance", "result": "did not alter the EC50 or Emax"}, {"measurement": "In vitro Emax (percent relaxation of phenylephrine-induced contraction)", "setting": "[2]", "result": -118, "unit": "%"}, {"measurement": "pEC50", "setting": "[2]", "result": 6.96}]}, {"smiles": "C1CCNCC1.O=[N][Cr+][I].c1cc[cH-]c1", "note": "[CpCr(NO)(pip)I]", "values": [{"measurement": "In vitro Emax (percent relaxation of phenylephrine-induced contraction)", "setting": "[2]", "result": -110, "unit": "%"}, {"measurement": "pEC50", "setting": "[2]", "result": 6.35}]}, {"smiles": "O=[N][Mo+]([Cl])[N]=O.c1cc[cH-]c1", "note": "[CpMo(NO)2 Cl, chloro(.eta.^5 -cyclopentadienyl)nitrosylmolybdenum]", "values": [{"measurement": "In vivo ED50 (effective dose to produce a 50% pressure depression response)", "setting": "[1]", "result": 0.4, "unit": "mg/kg"}, {"measurement": "In vivo Emax (maximum decrease in blood pressure)", "setting": "[1]", "result": -59, "unit": "mmHg"}, {"measurement": "Toxic dose: dose which caused death", "setting": "conscious rats; footnote b", "result": "25,600"}, {"measurement": "In vitro Emax (percent relaxation of phenylephrine-induced contraction)", "setting": "[2]", "result": -113, "unit": "%"}, {"measurement": "pEC50", "setting": "[2]", "result": 4.77}]}, {"smiles": "O=[N][W+]([Cl])[N]=O.c1cc[cH-]c1", "note": "[CpW(NO)2 Cl]", "values": [{"measurement": "In vivo ED50 (effective dose to produce a 50% pressure depression response)", "setting": "[1]", "result": 2.976, "unit": "mg/kg"}, {"measurement": "In vivo Emax (maximum decrease in blood pressure)", "setting": "[1]", "result": -36, "unit": "mmHg"}, {"measurement": "Toxic dose: dose which caused neither convulsion nor death", "setting": "conscious rats", "result": "40,000"}, {"measurement": "In vitro Emax (percent relaxation of phenylephrine-induced contraction)", "setting": "[2]", "result": -122, "unit": "%"}, {"measurement": "pEC50", "setting": "[2]", "result": 5.70}]}, {"smiles": "O=[N][W+].[C-]#[O+].[C-]#[O+].c1cc[cH-]c1", "note": "[CpW(NO)(CO)2, dicarbonyl(.eta.^5 -cyclopentadienyl)nitrosyltungsten]", "values": [{"measurement": "In vivo Emax (maximum decrease in blood pressure), in words", "setting": "[1]; biphasic denotes depressor followed by pressor response", "result": "biphasic"}, {"measurement": "Toxic dose: dose which caused convulsion", "setting": "conscious rats", "result": 500}, {"measurement": "In vitro Emax (percent relaxation of phenylephrine-induced contraction)", "setting": "[2]", "result": -107, "unit": "%"}, {"measurement": "pEC50", "setting": "[2]", "result": 5.60}]}, {"smiles": "O=[N+]([O-])OCC(CO[N+](=O)[O-])O[N+](=O)[O-]", "note": "[Nitroglycerin, glyceryl trinitrate, reference compound]", "values": [{"measurement": "ED50", "setting": "[1]; Rattus norvegicus, read-out: In vivo ED50 (effective dose to produce a 50% pressure depression response)", "result": 0.2, "unit": "mg/kg"}, {"measurement": "In vivo Emax (maximum decrease in blood pressure)", "setting": "[1]", "result": -56, "unit": "mmHg"}, {"measurement": "maximum depressor effect", "setting": "[1]", "result": -56, "unit": "mm Hg"}, {"measurement": "tolerance on continual exposure", "setting": "blood vessels", "result": "reduction in the ability of these compounds to vasodilate blood vessels"}, {"measurement": "effect of pre-incubation with nitroglycerin on EC50", "setting": "[3]; [4]", "result": "EC50 significantly increased"}, {"measurement": "effect of pre-incubation with nitroglycerin on Emax", "setting": "[3]; [4]", "result": "Emax unaltered"}, {"measurement": "pEC50", "setting": "[2]", "result": 6.52}, {"measurement": "Emax", "setting": "[2]; read-out: In vitro Emax (percent relaxation of phenylephrine-induced contraction)", "result": -104, "unit": "%"}]}, {"smiles": "O=[N][Fe]1([N]=O)[I][Fe]([N]=O)([N]=O)[I]1", "note": "[[Fe(NO)2 I]2, Iodo(dinitrosyl)iron Dimer]", "values": [{"measurement": "In vivo ED50 (effective dose to produce a 50% pressure depression response)", "setting": "[1]", "result": 0.554, "unit": "mg/kg"}, {"measurement": "In vivo Emax (maximum decrease in blood pressure)", "setting": "[1]", "result": -51, "unit": "mmHg"}, {"measurement": "Toxic dose: dose which caused neither convulsion nor death", "setting": "conscious rats", "result": 5120}, {"measurement": "In vitro Emax (percent relaxation of phenylephrine-induced contraction)", "setting": "[2]", "result": -108, "unit": "%"}, {"measurement": "pEC50", "setting": "[2]", "result": 4.70}]}]}
